With `CC(C)(COc1ccc(CNC(=O)C2Cc3ccccc3N2S(=O)(=O)c2ccc(-c3ccccc3C(F)(F)F)cc2)cc1)C(=O)O` (stereo unspecified) the melting point was 98 to 105 °C. Work on `O=C(CCC(=O)N1CCCCC1c1ccccc1)c1ccc2c(c1)CCN(C(=O)C(F)(F)F)CC2` (stereo unspecified) yielded a melting point of 132 to 133 °C. Molecule `Nc1ccc(S(=O)(=O)c2cc(N)cc(Br)n2)cc1` has a melting point of 202 to 204 °C. Molecule `COc1ccc(S(=O)(=O)Nc2ncnc(Cl)c2Cc2ccccc2OC)cc1` has a melting point of 149 to 151 °C. Molecule `CCOC(=O)c1nnc2ccc(-c3cccs3)cc2c1O` has a melting point of 258 to 260 °C. With `O=C(O)c1cccc(Nc2nc(Oc3ccccc3)nc(Oc3ccc(Cl)cc3)n2)c1` the melting point was 244 to 247 °C. Work on `Nc1c(Cl)cc(C2=NNC(=O)Cc3cc4c(cc32)OCO4)cc1Cl` yielded a melting point of 149 to 151 °C. `COC(=O)C(NC(=O)C=Cc1ccccc1)C(=O)C(C)C` (stereo unspecified) showed a melting point of 74 to 75 °C. For `Nc1ncc(CN2CC=C(c3ccccc3)CC2)c(N)n1`, the melting point was 239 to 241 °C. In the case of `Cc1ccc2c(c1)C1CN(CCCC(=O)c3ccc(F)cc3)CCC1N2` (stereo unspecified), the melting point is reported as 154 to 158 °C. Work on `CN=C(NS(=O)(=O)c1ccc(Cl)cc1)C1=NN(c2ccc(Cl)cc2)C(c2ccccc2)C1` (stereo unspecified) yielded a melting point of 134 to 144 °C. Work on `COc1ccc2cc(Br)ccc2c1[N+](=O)[O-]` yielded a melting point of 151 to 152 °C. In the case of `COc1ccc(-c2csc(Nc3ccccc3)n2)cc1OC`, the melting point is reported as 170 to 174 °C. In the case of `Clc1cc(Cl)c2nc[nH]c2n1`, the melting point is reported as 263 °C. Work on `N#Cc1c(-c2cccc(N)c2)cc(-c2ccccc2O)nc1NC(=O)c1ccsc1` yielded a melting point of 257 to 260 °C. Work on `C=CCC(C)(C)C(NC(=O)c1ccc(Cl)cc1)NC(=N[N+](=O)[O-])Nc1cccnc1` (stereo unspecified) yielded a melting point of 200 to 203 °C. For `CC(=O)c1c(Cl)cccc1N1CCN(CCCCOc2ccc3c(n2)NC(=O)CC3)CC1`, the melting point was 115 °C. `O=S(c1ccccc1)C1COc2ccc(OCc3ccc4ccccc4n3)cc2C1O` (stereo unspecified) showed a melting point of 174 to 176 °C. For `CCCCCCCCCCCCCCCCCC(=O)OC1CC(C)(C)N(OCC(C)(C)O)C(C)(C)C1`, the melting point was 51 to 56 °C. `O=C(CCCCCC(c1cc(F)ccc1F)S(=O)(=O)c1ccc(Cl)cc1)N1CCCC1` (stereo unspecified) gave a melting point of 106 °C. `CC(C)(C)NS(=O)(=O)c1ccccc1CCOS(C)(=O)=O` gave a melting point of 106 to 108 °C. `CC(OC(=S)Nc1ccc(-c2ncn(-c3ccc(OC(F)(F)F)cc3)n2)cc1)c1ccc(C(F)(F)F)nc1` (stereo unspecified) gave a melting point of 186 to 188 °C. With `COCCc1nc2c(N)nc3ccc(Br)cc3c2n1CCCN1CCCC1=O` the melting point was 185 to 188 °C. `O=Cc1ccc2c(c1)Sc1cc(C=O)ccc1N2c1ccccc1` showed a melting point of 194 to 198 °C. `COc1ccc(CCNCCc2ccc(OC)c(OC)c2)cc1OC` showed a melting point of 56 to 58 °C. `CC(=O)OCc1cc(Cl)ccc1Sc1ccccc1CN(C)C` showed a melting point of 41 to 44 °C. `Cn1c(=O)cc(CBr)c2ccccc21` gave a melting point of 188 to 190 °C. With `O=C1c2ccccc2C(=O)N1CSc1nnnn1-c1ccccc1` the melting point was 146 to 147 °C. `CCCC=C(OC(C)=O)C(=Cc1ccc(Cl)cc1)n1cncn1` showed a melting point of 112 to 113 °C. Molecule `CC(CC(O)(CNc1ccc2c(c1)COC2=O)C(F)(F)F)c1ccccc1` (stereo unspecified) has a melting point of 110 °C. Molecule `Cc1cccc2c(C(F)(F)F)c(O)ccc12` has a melting point of 83 to 84 °C. For `CC1Oc2ccc(C3=NNC(=O)CC3)cc2N(C)C1=O` (stereo unspecified), the melting point was 210 to 211 °C. In the case of `CCC1(CC(=O)O)OCCc2c1[nH]c1c(OCC(F)(F)F)cccc21` (stereo unspecified), the melting point is reported as 126 to 129 °C. For `[N-]=[N+]=C1c2cc(F)ccc2-c2ccc(F)cc21`, the melting point was 148 to 150 °C. `O=C(CBr)c1csc(-c2ccc([N+](=O)[O-])cc2)n1` gave a melting point of 186 to 187 °C. Molecule `CN1C(=O)C2(COc3cc4c(cc32)OCCO4)c2ccccc21` (stereo unspecified) has a melting point of 152 to 154 °C. With `CCCCn1cc(C=C2SC(=S)N(CC(=O)O)C2=O)c2ccccc21` the melting point was 280 to 285 °C. `COc1cncc(-c2cncc(OC3SCC(O)C(O)C3O)c2)c1` (stereo unspecified) showed a melting point of 193 °C. Work on `CCOC(=O)Cc1cc(C(=O)OC)ccc1NC(C)=O` yielded a melting point of 119 °C. Work on `Cc1cc(Cl)c(C)c(C(=O)O)c1` yielded a melting point of 168 to 170 °C. `CC(=O)NC1CCc2c([nH]c3ccc(Br)cc23)C1` (stereo unspecified) showed a melting point of 210 to 211 °C. Work on `O=C(O)CCSCc1nccc2ccccc12` yielded a melting point of 126 to 130 °C. With `Cn1c(COc2ccc(CC3SC(=O)NC3=O)cc2)nc2ccc(Oc3cccc(NC(=O)Nc4ccc5c(c4)OCO5)c3)cc21` (stereo unspecified) the melting point was 179 to 182 °C. `O=C1CC(=CN2CCOCC2)Oc2c(OCc3ccccc3)cccc21` gave a melting point of 107 to 108 °C. `O=C(O)c1cc(-c2ccccc2)c2c(n1)OCCN(Cc1cc(C(F)(F)F)cc(C(F)(F)F)c1)C2=O` gave a melting point of 119 to 123 °C. `O=C1c2c(cc(O)c(O)c2[N+](=O)[O-])CC1CN1CCOCC1` (stereo unspecified) showed a melting point of 193 to 195 °C. For `Cc1csc2c(CS(=O)c3nc4ccccc4[nH]3)nccc12` (stereo unspecified), the melting point was 186 to 188 °C. Molecule `CCOC(=N)c1cccc(Cc2ccccc2)c1` has a melting point of 121 to 122 °C. Molecule `CCOC(=O)/C=C/c1c(-c2ccccc2)c2c3ccccc3ccn2c1C(C)C` has a melting point of 145 to 146 °C. Molecule `CCCCCCCCc1ccc(OCC(=O)Cn2c(C(=O)O)cc3ccccc32)cc1` has a melting point of 173 °C. Molecule `CC(C)(CNC=O)c1ccc2nc(-c3c[nH]cn3)[nH]c2c1` has a melting point of 240 to 246 °C. With `CC(=O)N1c2ccccc2-c2c([N+](=O)[O-])cnn2C1c1ccccc1` (stereo unspecified) the melting point was 156 to 157 °C. Molecule `CCn1nc(C)c2c(NCc3ccccc3)c3ccccc3nc21` has a melting point of 228 to 231 °C. Work on `O=C(Cc1ccccc1)c1ccc(C(F)(F)F)cc1` yielded a melting point of 127 to 128 °C. `COC(=O)NCC1=C(n2ccccc2=O)c2cc([N+](=O)[O-])ccc2OC1(C)C` gave a melting point of 199 °C. With `CON=C(c1ccc(Cl)cc1)C(CNOC)CN1CCN(c2ccccn2)CC1` (stereo unspecified) the melting point was 106 to 109 °C. For `CCCOc1nc2ccc(I)cc2c(=O)n1CCC`, the melting point was 49 to 53 °C. In the case of `COc1cc(Cl)ncn1`, the melting point is reported as 32 to 34 °C. With `COc1ccc(-c2nc(C(F)(F)F)[nH]c2-c2ccc(S(C)(=O)=O)cc2)cc1F` the melting point was 228 to 234 °C. `O=C1C(=O)N(CCCN2CCN(C3c4ccccc4CCc4ccccc43)CC2)c2ccccc21` showed a melting point of 159 to 162 °C. `COC(=O)c1c(C)nc2cc(OC)c(OC)cc2c1-c1ccnc(Cl)c1` showed a melting point of 145 to 147 °C. Molecule `O=C(O)c1cccc2c(=O)cc(-c3ccc(OCc4ccccc4)cc3)oc12` has a melting point of 145 to 147 °C. `CCOC(=O)c1nn(-c2ccc(N=[N+]=[N-])cc2)c(=O)c2c(N)scc12` gave a melting point of 169 to 170 °C. `c1csc(-c2cccc3c(-c4cccs4)cccc23)c1` gave a melting point of 193 to 195 °C. `O=C(CCCCCCCCC(=O)N(CCO)CCO)N(CCO)CCO` showed a melting point of 87 to 98 °C. For `CCC1CCCCN1CCC(=O)Nc1ccc2c(=O)c3ccc(NC(=O)CCN4CCCCC4CC)cc3[nH]c2c1` (stereo unspecified), the melting point was > 320 °C. `CC(c1oc2ccccc2c(=O)c1-c1cc(F)cc(F)c1)n1cnc2c(N)ncnc21` (stereo unspecified) showed a melting point of 267 to 269 °C. `CCCC(=O)OCC(=O)c1ccc(-c2ccccc2)cc1` gave a melting point of 82 °C. With `O=S(=O)(c1ccc(-c2ccc(C(O)CCl)cc2)cc1)C(F)F` (stereo unspecified) the melting point was 104 to 107 °C. Molecule `CCCCSc1cc(C(=O)OCC)cc(S(N)(=O)=O)c1Cl` has a melting point of 160 to 162 °C. Molecule `c1nc(Nc2ccc3[nH]ccc3c2)c2sc(-c3ccsc3)cc2n1` has a melting point of 178 to 189 °C. `CC(NC(=O)Nc1cc(Cl)ccc1CCc1cc(C(C)(C)C)c(O)c(C(C)(C)C)c1)c1ccccc1` (stereo unspecified) showed a melting point of 167 to 168 °C. Molecule `COc1cc2c(cc1OC)C(C)(C)C(/C=C/C(=O)N1CCC(CCCC3CCN(C(=O)/C=C/C4=Cc5cc(OC)c(OC)cc5C4(C)C)CC3)CC1)=C2` has a melting point of 192 to 194 °C. `COc1ccc2cc(C(=O)Cl)oc2c1` gave a melting point of 96 to 99 °C. `CCOC(=O)CSC1(SCC(=O)OCC)CCC2C3CCC4=CC(=O)C=CC4(C)C3(F)C(O)CC21C` (stereo unspecified) gave a melting point of 125 to 127 °C. Molecule `COC12CC(CCCO)CN(C)C1Cc1c[nH]c3cccc2c13` (stereo unspecified) has a melting point of 190 to 195 °C. `Nn1ccn(C2CCc3ccccc3C2)c1=S` (stereo unspecified) gave a melting point of 187 to 189 °C. With `COCCNc1nc2c(N)nc3ccccc3c2n1CC(C)(C)O` the melting point was 176 to 178 °C. Molecule `CCNC(=O)Cc1ccc(C(=O)c2ccc(Cl)cc2)n1C` has a melting point of 187 to 188 °C. In the case of `Cc1ccc(S(=O)(=O)NN=C2C(=O)Nc3cccc(Cl)c32)cc1`, the melting point is reported as 195 to 196 °C. Work on `N#CC1CN1C(=O)NC(=O)C1CCCCC1` (stereo unspecified) yielded a melting point of 142 to 144 °C. `COC(=O)c1nn(-c2ccc(OCc3ccccc3)cc2F)cc(OC)c1=O` showed a melting point of 143 to 144 °C. With `CC[C@H](Cn1cnnn1)n1cnc2cc3c(=O)n([C@H](C)Cn4ncnn4)nnc3cc2c1=O` the melting point was 198 to 200 °C. In the case of `COc1ccc(N2CCN(C(=O)Oc3ccc(Oc4ccc(C(F)(F)F)cn4)cc3)CC2)c(OC)c1`, the melting point is reported as 98 to 99 °C. In the case of `COc1ccc(C(=O)Nc2c(Cl)cncc2Cl)c2c(CC(=O)O)coc12`, the melting point is reported as 270 to 278 °C. Work on `CC(=O)SCC(=O)NCCSC=CSCCNC(=O)CSC(C)=O` yielded a melting point of 129 °C. Work on `Cc1c(Cl)ccc(S(C)(=O)=O)c1C=NO` yielded a melting point of 164 to 168 °C. `Nc1c(OCCCl)cc(Cl)cc1[N+](=O)[O-]` showed a melting point of 109 to 110 °C. Work on `Cc1nc2cccc(C3CC3CN3C(=O)c4ccccc4C3=O)c2s1` (stereo unspecified) yielded a melting point of 151 to 153 °C. For `COC(=O)c1ccc2c(c1)Sc1ccccc1NC2=O`, the melting point was 255 to 257 °C. Work on `O=C1Cc2ccc(F)cc2Sc2cc(F)c(Cl)cc21` yielded a melting point of 131 to 133 °C. `CCN(CC)C(=O)Nc1ccc2oc3c(c2c1)CCCC3` gave a melting point of 179 to 180 °C. Work on `CC(C)(C)OC(=O)C1Cc2ccccc2CN1C(=O)CBr` (stereo unspecified) yielded a melting point of 92 to 95 °C. `COCC(=O)OCn1cc(C#N)c(-c2cccc(Cl)c2Cl)c1` gave a melting point of 72 to 75 °C. For `CC12CCC3c4ccc(O)cc4CCC3(C)C1CCC2O` (stereo unspecified), the melting point was 168 to 170 °C. For `CC(=O)SC(CC(=O)c1ccc(Oc2cccc(Cl)c2)cc1)C(=O)O` (stereo unspecified), the melting point was 122 to 125 °C. For `C=Cc1c[nH]c(=O)nc1N`, the melting point was > 290 °C. For `O=C(Nc1ccc(-n2nc(C(F)(F)F)cc2C2CC2)cc1)c1c(Cl)cncc1Cl`, the melting point was 182 to 184 °C. For `O=C(CNC(=O)CSC(=O)c1ccccc1)CNC(=O)CSC(=O)c1ccccc1`, the melting point was 134 to 140 °C. `Fc1cccc(C(c2ccc3nccnc3c2)n2ccnc2)c1` (stereo unspecified) showed a melting point of 110 °C. Work on `Cc1cc(O)n2nc(CBr)nc2n1` yielded a melting point of 217 to 222 °C.

Source: a melting point compilation (Tetko et al.; mined from patent text by program, amines drawn as free bases though some values may be those of a salt)
